The source made the active and inactive calls. Cut-off read from the data, not from the text of the source, for most assays here: actives have a measured EC50 and inactives only a lower limit.
How the values were obtained:
Streptococcus = assay: Group A Streptococcus viability loss, dose response, counter-screen for streptokinase expression inhibitor project, luminescence, BacTiterGlo (AID 1915); type: functional, organism-based;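 note: potency for reduction of bacterial viability or growth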
[1] = system: Streptococcus sp. 'group A'; assay: growth inhibition of control SK(-) GAS strain, dose response, counter-screen for streptokinase expression inhibitor project, luminescence, kanamycin, BacTiterGlo, confirmation (AID 1900); type: functional, organism-based
[2] = cytotoxicity toward NIH3T3 fibroblasts, dose response, counter-screen, cell-based, ATP luminescence, mouse fibroblasts (AID 2010); type: functional;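 note: cells exposed to compound for about 90 hours before reading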
[3] = inhibitors of intracellular T. cruzi replication, confirmation, NIH3T3 host cells, beta-gal luminescence (AID 2044); type: functional, cell-based;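 note: intracellular parasites grown in NIH/3T3 mouse fibroblasts as host cells; luminescent beta-galactosidase reporter signal from transgenic T. cruzi replicating inside host cells; inhibitors lower the luminescence signal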
[4] = molecular target: T1, Heat shock factor protein 1 (Mus musculus, UniProt P38532); assay: inhibition of MG132-induced HSE-luciferase signal, confirmation, cell-based, NIH3T3, luminescence, dose retest (AID 2382); type: functional;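 note: NIH3T3 fibroblasts with HSF1-driven luciferase reporter stressed by proteasome inhibitor MG132; luminescence from HSF1-driven luciferase expression after 8 hours of MG132 stress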
T1 sequence (P38532 whole entry): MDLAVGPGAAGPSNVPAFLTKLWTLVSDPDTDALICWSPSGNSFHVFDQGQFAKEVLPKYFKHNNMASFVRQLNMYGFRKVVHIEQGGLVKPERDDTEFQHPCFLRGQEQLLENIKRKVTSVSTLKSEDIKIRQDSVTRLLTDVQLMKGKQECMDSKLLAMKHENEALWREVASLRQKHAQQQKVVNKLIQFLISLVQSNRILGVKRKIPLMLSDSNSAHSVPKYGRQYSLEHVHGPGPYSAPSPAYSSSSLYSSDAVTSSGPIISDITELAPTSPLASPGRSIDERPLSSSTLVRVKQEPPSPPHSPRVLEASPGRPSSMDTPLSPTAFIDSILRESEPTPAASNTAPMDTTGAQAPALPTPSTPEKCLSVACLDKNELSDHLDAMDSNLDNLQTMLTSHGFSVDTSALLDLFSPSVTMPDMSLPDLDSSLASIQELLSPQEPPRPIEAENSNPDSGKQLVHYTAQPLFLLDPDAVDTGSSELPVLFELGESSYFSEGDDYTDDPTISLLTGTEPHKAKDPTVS

Cytochrome P450 2D6 = Cytochrome P450 2D6 (Homo sapiens, UniProt P10635);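 note: CYP2D6 member of a cytochrome P450 panel assay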
Cytochrome P450 2D6, sequence (P10635 whole entry): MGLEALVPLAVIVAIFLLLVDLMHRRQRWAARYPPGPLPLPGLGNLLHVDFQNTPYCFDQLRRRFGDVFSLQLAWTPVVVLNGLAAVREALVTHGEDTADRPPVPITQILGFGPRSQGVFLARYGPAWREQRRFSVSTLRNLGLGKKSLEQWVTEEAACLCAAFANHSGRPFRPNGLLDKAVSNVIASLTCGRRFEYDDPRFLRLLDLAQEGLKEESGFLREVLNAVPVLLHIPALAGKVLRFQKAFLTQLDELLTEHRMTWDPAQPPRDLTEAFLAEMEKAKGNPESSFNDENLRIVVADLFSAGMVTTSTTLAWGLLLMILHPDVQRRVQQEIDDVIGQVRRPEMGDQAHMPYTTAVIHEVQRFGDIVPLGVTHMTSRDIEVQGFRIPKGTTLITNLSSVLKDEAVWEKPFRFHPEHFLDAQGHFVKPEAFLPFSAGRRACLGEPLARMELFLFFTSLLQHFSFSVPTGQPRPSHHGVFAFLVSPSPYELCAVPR

Cytochrome P450 1A2 = molecular target: T2, Cytochrome P450 1A2 (Homo sapiens, UniProt P05177);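 note: PubChem cytochrome P450 panel assay, CYP1A2 panel member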
T2 sequence (P05177 whole entry): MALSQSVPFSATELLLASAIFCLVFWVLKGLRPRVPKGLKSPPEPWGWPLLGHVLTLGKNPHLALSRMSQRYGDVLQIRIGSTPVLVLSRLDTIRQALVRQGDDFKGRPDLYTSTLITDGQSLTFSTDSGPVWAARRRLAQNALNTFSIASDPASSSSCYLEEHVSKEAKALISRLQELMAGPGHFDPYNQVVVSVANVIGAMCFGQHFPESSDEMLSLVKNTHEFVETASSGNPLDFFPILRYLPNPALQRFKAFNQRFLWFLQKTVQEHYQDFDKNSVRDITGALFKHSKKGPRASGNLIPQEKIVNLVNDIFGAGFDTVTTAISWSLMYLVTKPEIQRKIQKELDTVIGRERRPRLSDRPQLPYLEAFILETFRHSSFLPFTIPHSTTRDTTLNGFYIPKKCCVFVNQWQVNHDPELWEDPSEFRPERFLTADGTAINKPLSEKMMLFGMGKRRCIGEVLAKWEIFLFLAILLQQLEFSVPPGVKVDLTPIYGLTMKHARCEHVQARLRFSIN

Streptokinase A = molecular target: T3, Streptokinase A (Streptococcus pyogenes serotype M1, UniProt P10520); assay: S. pyogenes streptokinase expression inhibitors, potency, dose response, plasminogen activation absorbance, OD405 (AID 1914); type: functional, Streptococcus pyogenes M1 GAS;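 note: secreted streptokinase activity via plasminogen activation per viability signal from cell pellet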
T3 sequence (P10520 whole entry): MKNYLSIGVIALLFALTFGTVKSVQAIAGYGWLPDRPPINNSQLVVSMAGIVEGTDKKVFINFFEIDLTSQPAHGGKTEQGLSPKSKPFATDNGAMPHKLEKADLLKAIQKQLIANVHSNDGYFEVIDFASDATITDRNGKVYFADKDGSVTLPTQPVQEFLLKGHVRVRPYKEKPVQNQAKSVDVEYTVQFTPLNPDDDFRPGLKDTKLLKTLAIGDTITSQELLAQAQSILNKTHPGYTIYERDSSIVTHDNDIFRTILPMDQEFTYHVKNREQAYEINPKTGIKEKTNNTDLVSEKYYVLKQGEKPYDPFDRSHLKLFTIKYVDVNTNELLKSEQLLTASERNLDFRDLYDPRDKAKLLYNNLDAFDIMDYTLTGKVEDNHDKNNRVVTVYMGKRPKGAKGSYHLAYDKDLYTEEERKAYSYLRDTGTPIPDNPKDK

Paired box protein Pax-8 = Paired box protein Pax-8 (Homo sapiens, UniProt Q06710); assay: inhibitors of PAX8-driven TPO luciferase reporter, dose response, RMG-I cells, cherry-pick (AID 687027); type: functional, cell-based;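 note: luciferase reporter driven by Pax8 target thyroperoxidase promoter measured by SteadyGlo luminescence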
Paired box protein Pax-8, sequence (Q06710 whole entry): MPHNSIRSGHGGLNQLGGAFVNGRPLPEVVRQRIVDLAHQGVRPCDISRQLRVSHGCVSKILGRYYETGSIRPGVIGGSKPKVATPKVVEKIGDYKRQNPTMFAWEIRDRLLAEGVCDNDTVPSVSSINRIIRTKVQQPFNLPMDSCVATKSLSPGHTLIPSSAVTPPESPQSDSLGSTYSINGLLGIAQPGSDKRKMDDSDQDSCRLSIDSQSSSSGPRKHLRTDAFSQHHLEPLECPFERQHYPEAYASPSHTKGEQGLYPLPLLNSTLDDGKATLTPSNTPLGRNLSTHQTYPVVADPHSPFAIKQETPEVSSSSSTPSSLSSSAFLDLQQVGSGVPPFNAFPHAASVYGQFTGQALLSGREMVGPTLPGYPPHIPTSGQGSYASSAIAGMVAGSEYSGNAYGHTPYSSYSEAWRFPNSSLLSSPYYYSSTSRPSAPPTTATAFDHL

## Cc1nn(-c2ccccc2)c(Cl)c1C1C(C#N)=C(N)Oc2c1c(=O)oc1ccccc21 (stereo unspecified)
Streptococcus
  EC50: 0.344 µM (active)
[1]
  EC50: 0.197 µM (active)

## COc1ccccc1NC(=O)/C=C1\SCC(=O)N1C
[2]
  EC50: > 60 µM (not active)
[3]
  EC50: 0.949 µM (active)

## CC1CCCN(CCCOc2ccc(Cl)cc2Br)C1 (stereo unspecified)
[4]
  EC50: > 195 µM (not active)

## CC1CCN(S(=O)(=O)c2ccc(NC(=O)CN3CCN(C)CC3)cc2)CC1
[2]
  EC50: > 60 µM (not active)
[3]
  EC50: 0.738 µM (active)

## CCOc1ccc(NC(=O)C2CCCN(c3nn4c(=O)cc(C)nc4s3)C2)cc1 (stereo unspecified)
[4]
  EC50: > 195 µM (not active)

## O=C(C1CCCN(S(=O)(=O)c2cccc3nsnc23)C1)N1CC=C(c2ccccc2)CC1 (stereo unspecified)
Cytochrome P450 2D6
  AC50: 5.01 µM (inconclusive)
Cytochrome P450 1A2
  AC50: 14.1 µM (inconclusive)

## COc1ccc(NC(=O)c2ccc([N+](=O)[O-])cc2[N+](=O)[O-])c(OC)c1
[2]
  EC50: > 30 µM (not active)
[3]
  EC50: 1.16 µM (active)

## COc1ccccc1-c1cc(NCc2cccc(C)c2)ncn1
Cytochrome P450 2D6
  AC50: 20 µM (inconclusive)

## c1ccc2c(NC3CCNCC3)nc(-c3ccoc3)nc2c1
Cytochrome P450 2D6
  AC50: 7.94 µM (inconclusive)

## Cc1nc2cnc(Oc3ccccc3)nc2n(Cc2cccs2)c1=O
Cytochrome P450 2D6
  AC50: 31.6 µM (inconclusive)

## O=S(=O)(c1ccc(Cl)s1)N1CCc2ccccc2C1
Cytochrome P450 2D6
  AC50: 31.6 µM (inconclusive)
Cytochrome P450 1A2
  AC50: 25.1 µM (inconclusive)

## O=C(O)CCN1C(=S)CSC1=S
Cytochrome P450 1A2
  AC50: 5.01 µM (inconclusive)

## Cc1ccc(NC(=O)/C(=C\c2ccc3c(c2)OCO3)NC(=O)c2ccco2)cc1
Cytochrome P450 2D6
  AC50: 15.8 µM (inconclusive)
Cytochrome P450 1A2
  AC50: 11.2 µM (inconclusive)

## O=C(CN1C(=O)C2C3C=CC(C3)C2C1=O)OCC(=O)c1ccc(Br)cc1 (stereo unspecified)
[4]
  EC50: > 195 µM (not active)

## Cc1ccc(CN2CCN(Cc3ccccc3)CC2)cc1
[2]
  EC50: > 60 µM (not active)
[3]
  EC50: 0.143 µM (active)

## CCOC(=O)C1CCN(c2c(NCc3ccc(C(=O)Nc4ccc(C)cc4)cc3)c(=O)c2=O)CC1
[4]
  EC50: > 195 µM (not active)

## O=C(O)c1cccc(NC(=S)NC(=O)c2ccc3ccccc3c2)c1
[4]
  EC50: 20.6 µM (active)

## COc1cccc(-n2ccnc2SCC(=O)Nc2ccccc2F)c1
[4]
  EC50: > 195 µM (not active)

## CCOc1ccc(N(CC(=O)NCc2ccc(C)cc2)S(=O)(=O)c2c(C)nc(O)nc2O)cc1
Streptococcus
  EC50: > 150 µM (not active)
[1]
  EC50: > 150 µM (not active)
Streptokinase A
  EC50: > 150 µM (not active)

## COc1ccc(-c2ncn(CCC#N)c2[N+](=O)[O-])cc1
Streptococcus
  EC50: 5.92 µM (active)
[1]
  EC50: 3.52 µM (active)
Streptokinase A
  EC50: > 150 µM (not active)

## CSCC[C@H](NC(=O)N1CCn2c1nc1ccccc12)C(=O)NC1CC1
[4]
  EC50: > 195 µM (not active)

## O=C(c1cnccn1)N1CCC2(CCCN(Cc3ccccc3)C2)CC1
Cytochrome P450 2D6
  AC50: 7.94 µM (inconclusive)

## CCN1CCN(CCOc2ccc(Cl)cc2)CC1
[2]
  EC50: > 30 µM (not active)
[3]
  EC50: 0.176 µM (active)

## O=S(=O)(NCc1ccccn1)c1ccc(F)cc1
[4]
  EC50: > 195 µM (not active)

## O=C(NCCCn1ccnc1)c1nn2c(C(F)(F)F)cc(-c3ccccc3)nc2c1Cl
Streptococcus
  EC50: > 150 µM (not active)
[1]
  EC50: > 150 µM (not active)
Streptokinase A
  EC50: > 150 µM (not active)

## Cc1noc(C)c1COc1ccc(C(=O)OCC(=O)Nc2c(C)n(C)n(-c3ccccc3)c2=O)cc1
[4]
  EC50: > 195 µM (not active)

## O=C(CSc1nc(Nc2ccccc2)nc(N2CCOCC2)n1)Nc1ccc([N+](=O)[O-])cc1
[2]
  EC50: > 60 µM (not active)
[3]
  EC50: 2.18 µM (active)

## COC(=O)c1ccc(N2CCC(c3cc(-c4ccc(OC)cc4)[nH]n3)CC2)c([N+](=O)[O-])c1
Streptococcus
  EC50: 44.2 µM (active)
[1]
  EC50: 3.87 µM (active)

## Cc1nc2cc(-c3ccccc3)nn2c(C)c1CCC(=O)NC(C)c1ccc2c(c1)OCCO2 (stereo unspecified)
[4]
  EC50: > 195 µM (not active)

## CCCn1c(=O)n(C)c(=O)c2c(SCC(=O)NC34CC5CC(CC(C5)C3)C4)nc(CC(C)C)nc21
[2]
  EC50: > 60 µM (not active)
[3]
  EC50: > 60 µM (not active)

## CCCc1nnc(NC(=O)CCC(=O)N2CCN(S(=O)(=O)c3ccc(F)cc3)CC2)s1
[4]
  EC50: > 195 µM (not active)

## COc1cc(CNCc2cccs2)ccc1OCC(N)=O
Cytochrome P450 1A2
  AC50: 39.8 µM (inconclusive)

## O=C(Nc1ccc(Br)cc1)C1CCC(=O)N1Cc1ccccc1Cl (stereo unspecified)
Cytochrome P450 1A2
  AC50: 14.1 µM (inconclusive)

## Cc1nc(Nc2ccc3c(c2)OCCO3)c2nnn(Cc3ccccc3Cl)c2n1
[2]
  EC50: > 60 µM (not active)
[3]
  EC50: 2.74 µM (active)
[4]
  EC50: 3.43 µM (active)

## O=C1NC(=O)N(Cc2ccccc2)C(=O)/C1=C/NCCN1CCNCC1
[4]
  EC50: > 195 µM (not active)

## O=C(Cn1cnc2cc([N+](=O)[O-])ccc2c1=O)Nc1ccc2c(c1)CCC2
[2]
  EC50: > 60 µM (not active)
[3]
  EC50: 0.5 µM (active)

## O=C(Nc1ccc(S(=O)(=O)N2CCc3ccccc32)cc1)c1ccc2c(c1)OCO2
[2]
  EC50: > 60 µM (not active)
[3]
  EC50: 3.4 µM (active)

## Cc1ccc2oc(=O)cc(CN3CCN(C/C=C/c4ccccc4)CC3)c2c1
[2]
  EC50: > 60 µM (not active)
[3]
  EC50: 0.293 µM (active)

## Cc1ccccc1NC(=O)CN1CCC(n2nnc3ccccc32)CC1
Cytochrome P450 2D6
  AC50: 0.01 µM (inconclusive)

## Oc1ccccc1/C=N/NC(=S)NC1CC2C=CC1C2 (stereo unspecified)
Streptococcus
  EC50: > 16 µM (not active)
[1]
  EC50: 5.04 µM (active)
Streptokinase A
  EC50: > 16 µM (not active)

## C[C@@H]1CCCCO[C@@H](CN(C)S(=O)(=O)c2ccc(Cl)cc2)[C@H](C)CN([C@@H](C)CO)C(=O)c2cc(NS(=O)(=O)c3ccc(Cl)cc3)ccc2O1
Paired box protein Pax-8
  AC50: 2.78 µM (active)

## COC(=O)[C@@]12C[C@@H](CC(=O)N3CCN(C(=O)c4ccco4)CC3)C(=O)N(Cc3ccco3)C1=CCC(C)(C)C2
Paired box protein Pax-8
  AC50: 2.44 µM (active)

## Cc1noc(C)c1NC(=O)Nc1cccc2c1O[C@H](CN(C)Cc1ccc(C(F)(F)F)cc1)[C@H](C)CN([C@@H](C)CO)C2=O
Paired box protein Pax-8
  AC50: 27.5 µM (active)

## C[C@H]1CCCCO[C@@H](CN(C)Cc2ccc(C(F)(F)F)cc2)[C@@H](C)CN([C@@H](C)CO)C(=O)c2cc(NS(=O)(=O)c3cccs3)ccc2O1
Paired box protein Pax-8
  AC50: 7.2 µM (active)

## Cc1ccc(OCc2nnc(SC(C)C(=O)O)n2-c2ccccc2)cc1 (stereo unspecified)
[4]
  EC50: > 195 µM (not active)

## CC(C)/C(=N/Nc1ccccc1[N+](=O)[O-])c1ccccc1
Streptococcus
  EC50: 52.5 µM (active)
[1]
  EC50: 6.63 µM (active)
Streptokinase A
  EC50: 18.4 µM (active)

## O=C(N/N=C/c1ccc(F)cc1)c1ccc(OCc2ccccc2)cc1
[4]
  EC50: > 195 µM (not active)

## CCCCCCn1c(=O)c(C(=O)N/N=C/c2cccc(F)c2)c(O)c2ccccc21
Streptococcus
  EC50: 16.1 µM (active)
[1]
  EC50: 11.6 µM (active)

## CN(C)C(=O)c1ccc(-c2cncnc2NCc2ccccc2)cc1
Cytochrome P450 1A2
  AC50: 20 µM (inconclusive)

## COCC1=C(C(=O)OC(C)OC(=O)OC(C)C)N2C(=O)[C@@H](NC(=O)/C(=N\OC)c3csc(N)n3)[C@H]2SC1 (stereo partly specified) [CEFPODOXIME PROXETIL]
Streptococcus
  EC50: 0.987 µM (active)
[1]
  EC50: 0.697 µM (active)

## O=C1c2ccccc2S(=O)(=O)N1CCCCN1CCN(c2ncccn2)CC1 [IPSAPIRONE]
Cytochrome P450 2D6
  AC50: 20 µM (inconclusive)
Cytochrome P450 1A2
  AC50: 31.6 µM (inconclusive)

Reference: ChEMBL document CHEMBL1201862, “PubChem BioAssay data set” (2004)
